Results reported in PMC6114962, “A Phase Ib, open-label, dose-finding study of alpelisib in combination with paclitaxel in patients with advanced solid tumors” (Oncotarget, 2018).
Read-outs that look alike come from different tables or passages of the source.

What was measured:
[1] = test system: patients; set-up: method as in PMID 22184370; details: paclitaxel 80 mg/m^2 QW, 1-hour IV infusion; cited from earlier work
[2] = Plasma pharmacokinetics of paclitaxel and alpelisib in Cycle 1; format: in vivo, human; details: for AUC(0-inf) / Cmax / Tmax / AUC(0-t): human, plasma; for AUC(0-inf): read-out: AUCinf, geometric mean (CV%); for Cmax: read-out: Cmax, geometric mean (CV%); for AUC(0-t): read-out: AUC0–24, geometric mean (CV%)
From the text: (§1) PK samples for alpelisib were collected from all patients.
(§2) Analysis sets were as follows: full analysis set (FAS), all patients who received at least one dose of alpelisib and/or paclitaxel; safety set, all patients who received at least one dose of alpelisib and/or paclitaxel and had at least one valid post-baseline safety assessment; dose-determining set (DDS), all patients from the safety set who during Cycle 1 either met the minimum exposure criterion and had sufficient safety evaluations, or experienced a DLT; and pharmacokinetic analysis set, all patients in the FAS who received at least one dose of alpelisib and/or paclitaxel and had at least one evaluable concentration measurement.

[3] = test system: patients with advanced solid tumors; assay: Phase Ib dose finding: dose-limiting toxicities and MTD of alpelisib QD plus paclitaxel; format: in vivo, human; details: with paclitaxel 80 mg/m^2 QW; BLRM with EWOC
Protocol: In the dose-finding phase, the primary objective was to determine the MTD and/or recommended Phase II dose (RP2D) of alpelisib QD when administered with paclitaxel 80 mg/m^2 QW in patients with advanced solid tumors, and the secondary objectives were to assess safety and tolerability and to characterize the pharmacokinetic (PK) profile.
Patients received oral alpelisib QD in 28-day cycles (300, 250, or 150 mg) and paclitaxel 80 mg/m^2 QW as a 1-hour (±15 minutes) IV infusion after standard premedication (per local standard practice). Patients received treatment until disease progression, unacceptable toxicity, patient decision, death, or discontinuation for any other reason. […]
An adaptive 5-parameter Bayesian logistic regression model (BLRM) with escalation with overdose control (EWOC) guided the dose-finding of each combination. […] Available data were analyzed after Cycle 1 per cohort of patients to decide the dose for the next cohort and/or determine the MTD/RP2D. […]

[4] = test system: patients with advanced solid tumors; format: in vivo
Protocol: Patients received oral alpelisib QD in 28-day cycles (300, 250, or 150 mg) and paclitaxel 80 mg/m^2 QW as a 1-hour (±15 minutes) IV infusion after standard premedication (per local standard practice). Patients received treatment until disease progression, unacceptable toxicity, patient decision, death, or discontinuation for any other reason.
as §1, §2

[5] = test system: patients; details: cited from earlier work
[6] = test system: patients with advanced solid tumors; details: cited from earlier work
[7] = iv, 80 mg/m^2, paclitaxel 80 mg/m^2 IV, C1D1, alpelisib 150 mg + paclitaxel cohort
[8] = iv, 80 mg/m^2, paclitaxel 80 mg/m^2 IV, C1D1, alpelisib 250 mg + paclitaxel cohort
[9] = iv, paclitaxel 80 mg/m^2 IV, C1D8, alpelisib 150 mg + paclitaxel cohort
[10] = paclitaxel 80 mg/m^2 IV, C1D1, alpelisib 300 mg + paclitaxel cohort
[11] = paclitaxel 80 mg/m^2 IV, C1D8, alpelisib 250 mg + paclitaxel cohort
[12] = alpelisib 150 mg plus paclitaxel
[13] = alpelisib 250 mg plus paclitaxel
[14] = alpelisib 300 mg plus paclitaxel
[15] = po, oral alpelisib 150 mg QD + paclitaxel, C1D8
[16] = po, oral alpelisib 250 mg QD + paclitaxel, C1D8
[17] = po, oral alpelisib 300 mg QD + paclitaxel, C1D8

In the case of `CC(=O)O[C@H]1C(=O)[C@@]2(C)[C@H]([C@H](OC(=O)c3ccccc3)[C@]3(O)C[C@H](OC(=O)[C@H](O)[C@@H](NC(=O)c4ccccc4)c4ccccc4)C(C)=C1C3(C)C)[C@]1(OC(C)=O)CO[C@@H]1C[C@@H]2O` [paclitaxel], the “all-grade AE: abdominal pain” value [1] is listed as 33%, the “all-grade AE: alopecia” value [1] is listed as 36% and the “all-grade AE: fatigue” value [1] is listed as 47%. For the same molecule, the “all-grade AE: nausea” value [1] was 31%, the “all-grade AE: peripheral neuropathy” value [1] was 31% and the “plasma drug exposure (AUCinf and Cmax), Cycle 1 Day 1 versus Cycle 1 Day 8” value ([2]; absence versus presence of alpelisib, except Cmax at alpelisib 300 mg C1D8) was “comparable”. It also gave an AUC(0-inf) [2, 7] of 4360 ng·h/mL, a Cmax [2, 7] of 2650 ng/mL and an AUC(0-inf) [2, 8] of 4320 ng·h/mL. For the same molecule, the Cmax [2, 8] was 2770 ng/mL, the Cmax ([2]; iv, 80 mg/m^2, paclitaxel 80 mg/m^2 IV, C1D1, alpelisib 300 mg + paclitaxel cohort) was 2700 ng/mL and the AUC(0-inf) [2, 9] was 4370 ng·h/mL. The Cmax [2, 9] was 2790 ng/mL, the Cmax ([2]; iv, paclitaxel 80 mg/m^2 IV, C1D8, alpelisib 250 mg + paclitaxel cohort) was 2960 ng/mL and the AUC(0-inf) ([2]; iv, paclitaxel 80 mg/m^2 IV, C1D8, alpelisib 300 mg + paclitaxel cohort) was 4470 ng·h/mL. For the same molecule, the Tmax ([2]; iv, paclitaxel 80 mg/m^2 IV, C1D8, alpelisib 300 mg + paclitaxel cohort, read-out: Tmax, median (range)) was 0.75 h, the “Tmax, median (range)” value ([2]; paclitaxel 80 mg/m^2 IV, C1D1, alpelisib 150 mg + paclitaxel cohort) was 1 (0.87–1.17) [8] hours and the “Tmax, median (range)” value ([2]; paclitaxel 80 mg/m^2 IV, C1D1, alpelisib 250 mg + paclitaxel cohort) was 1 (0.45–1.05) [3] hours. The “AUCinf, geometric mean (CV%)” value [2, 10] was 5000 (24) [5] ng·hr/ml, the “Tmax, median (range)” value [2, 10] was 1 (0.5–1.28) [5] hours and the “Tmax, median (range)” value ([2]; paclitaxel 80 mg/m^2 IV, C1D8, alpelisib 150 mg + paclitaxel cohort) was 1 (0.5–1.07) [9] hours. For the same molecule, the “AUCinf, geometric mean (CV%)” value [2, 11] was 5000 (42.7) [2] ng·hr/ml, the “Tmax, median (range)” value [2, 11] was 0.8 (0.5–1.17) [3] hours and the “Cmax, geometric mean (CV%)” value ([2]; paclitaxel 80 mg/m^2 IV, C1D8, alpelisib 300 mg + paclitaxel cohort) was 1250 (114) [6] ng/ml.
With `Cc1nc(NC(=O)N2CCC[C@H]2C(N)=O)sc1-c1ccnc(C(C)(C)C(F)(F)F)c1` [alpelisib] the “MTD of alpelisib when administered with paclitaxel” value [3] was 150 mg QD, the “rate of alpelisib dose interruption” value [4, 12] was 66.7% and the “rate of alpelisib dose reduction (at least one)” value (from here on “rate of alpelisib dose reduction”) [4, 12] was 22.2%. The “rate of alpelisib dose interruption” value [4, 13] was 75.0%, the “rate of alpelisib dose reduction” value [4, 13] was 50.0% and the “rate of alpelisib dose interruption” value [4, 14] was 66.7%. For the same molecule, the “rate of alpelisib dose reduction” value [4, 14] was 66.7%, the “MTD of alpelisib with nab-paclitaxel” value ([5]; Phase I study (N=10)) was “not reached” and the “recommended Phase II dose, alpelisib” value ([5]; plus nab-paclitaxel 100 mg/m^2 IV weekly) was 350 mg daily. For the same molecule, the “Grade 3/4 AE: hyperglycemia” value ([6]; single-agent alpelisib 30–450 mg QD or 120–200 mg twice daily, N=134) was 23.9%, the “all-grade treatment-related AE: hyperglycemia” value ([6]; single-agent alpelisib, N=134) was 51.5% and the “maximum tolerated dose (MTD), single agent” value ([6]; single-agent alpelisib, advanced solid tumors) was 400 mg once daily (QD). For the same molecule, the “hyperglycemia DLT during dose finding” value ([6]; single-agent alpelisib, seven of 68 evaluable patients) was 10.3%, the “dose from which preliminary anti-tumor activity was exhibited” value ([6]; single-agent alpelisib, solid tumors) was no less than 270 mg QD and the “all-grade treatment-related AE: decreased appetite” value ([6]; single-agent alpelisib) was 41.8%. For the same molecule, the “all-grade treatment-related AE: diarrhea” value ([6]; single-agent alpelisib) was 40.3%, the “all-grade treatment-related AE: nausea” value ([6]; single-agent alpelisib) was 50.0% and the “all-grade treatment-related AE: vomiting” value ([6]; single-agent alpelisib) was 31.3%. For the same molecule, the “impact of steady-state alpelisib exposure on paclitaxel metabolism” value ([2]; alpelisib 150–300 mg) was “no impact”, the “Cmax and AUC0-24 after oral administration versus dose” value ([2]; alpelisib 150–300 mg QD) was “increased in a dose-dependent manner” and the Tmax ([2]; oral, Cycle 1 Day 8, alpelisib 150–300 mg, read-out: Median time to maximum concentration (Tmax) across dose levels) was 3.17 to 4.17 h. For the same molecule, the AUC(0-t) [2, 15] was 13800 ng·h/mL, the Cmax [2, 15] was 1390 ng/mL and the Tmax ([2]; po, oral alpelisib 150 mg QD + paclitaxel, C1D8, read-out: Tmax, median (range)) was 3.17 h. It also gave an AUC(0-t) [2, 16] of 27700 ng·h/mL, a Cmax [2, 16] of 3750 ng/mL and a Tmax ([2]; po, oral alpelisib 250 mg QD + paclitaxel, C1D8, read-out: Tmax, median (range)) of 3.23 h. For the same molecule, the AUC(0-t) [2, 17] was 37100 ng·h/mL, the Cmax [2, 17] was 3000 ng/mL and the Tmax ([2]; po, oral alpelisib 300 mg QD + paclitaxel, C1D8, read-out: Tmax, median (range)) was 4.17 h.
